# Test system: rat-derived basophils (RBL-2H3)
# Assay: β-Hexosaminidase release-inhibition assay
# Type: cell-based
# Conditions: antigen (DNP-BSA)-stimulated RBL-2H3; FIG. 7, FIG. 8
# Description: The assay principle of the β-hexosaminidase release assay is as follows:
# β-hexosaminidase is a glycolytic enzyme, and is one of the lysosome enzymes occurring abundantly in granules of mast cells.
# In the β-hexosaminidase release assay, p-nitrophenyl phosphate is separated due to the presence of this enzyme. The separated p-nitrophenyl phosphate is determined by a photometric method (405 nm), and the result is set as the β-hexosaminidase enzyme activity.
# The effect of inhibiting β-hexosaminidase release was evaluated using the anti-allergic effect test that uses as an index β-hexosaminidase released from the rat-derived basophils (RBL-2H3).
# RBL-2H3 cells were cultured (5% carbon dioxide, 37° C.) in an Eagle minimum essential medium containing 10% fetal calf serum (FCS), 100 units/mL penicillin and 100 μg/mL streptomycin. Then, the cells were plated to a 24-well flat-bottomed microplate for cell culture at 2.5×10^5 cells/well ([…] medium/well). By culturing for 24 hours (5% carbon dioxide, 37° C.), the cells were sensitized. The sensitized cells were then washed once in 500 μl of PBF, and 160 μl of the siraganian buffer containing 5.6 mM glucose, 1 mM calcium chloride and 0.1% BSA was added. A sample solution at each concentration and 20 μl of the test substance solution (DMSO: 0.1%) were added, and ten minutes later the antigen (DNP-BSA: 10 μg/mL) was added and incubated for 10 minutes to stimulate the cells. After stopping the reaction by cooling with ice for 10 minutes, 50 μl of the supernatant was transferred to a 96-well flat-bottomed microtiter plate, to which 100 μl of the enzyme reaction was added and mixed. After determining absorbance of the mixture by a microplate reader, the release ratio was determined by the following equation (measurement wavelength: 405 nm, reference wavelength: 655 nm). β-hexosaminidase release ratio (%)=[amount of β-hexosaminidase released by stimulation/amount of total intracellular β-hexosaminidase]×100
# Total intracellular β-hexosaminidase was determined using the supernatant obtained by centrifuging the cells disrupted by an ultrasonic disruption instrument.
row,Compound,Effect of inhibiting β-hexosaminidase release
1,"c1ccc2c(c1)[I+]c1ccccc1-2 [DPI, reference compound]","inhibited, in a concentration-dependent manner"
2,CC[C@H](CC[C@@H](C)[C@H]1CCC2[C@@H]3CCC4=CC(=O)CC[C@]4(C)C3CC[C@@]21C)C(C)C (stereo partly shown) [stigmast-4-en-3-one],roughly confirmed
3,"CC[C@H](CC[C@@H](C)[C@H]1CC[C@H]2[C@@H]3CC(=O)C4=CC(=O)CC[C@]4(C)[C@H]3CC[C@]12C)C(C)C [stigmast-4-ene-3,6-dione]",roughly confirmed
4,"CC[C@H](/C=C/[C@@H](C)[C@H]1CCC2[C@@H]3CCC4=CC(=O)CC[C@]4(C)C3CC[C@@]21C)C(C)C (stereo partly shown) [stigmasta-4,22-dien-3-one]",roughly confirmed

# From patent US7431953B2, “Skin preparation for external use containing Purpuricenus temminckii frass as the active ingredient” (Nihon University, priority 2002, dated 2008)
